# Laboratory results taken from US20240383908A1, “SYNTHESIS AND APPLICATION OF PHOSPHATASE DEGRADER” (HINOVA PHARMACEUTICALS INC., priority 2021, published 2024).
# Structures can show the parent of a compound that is named as a salt.
# Target: T1, SHP2 protein (Homo sapiens, UniProt Q06124)
# T1 sequence (Q06124 1-593): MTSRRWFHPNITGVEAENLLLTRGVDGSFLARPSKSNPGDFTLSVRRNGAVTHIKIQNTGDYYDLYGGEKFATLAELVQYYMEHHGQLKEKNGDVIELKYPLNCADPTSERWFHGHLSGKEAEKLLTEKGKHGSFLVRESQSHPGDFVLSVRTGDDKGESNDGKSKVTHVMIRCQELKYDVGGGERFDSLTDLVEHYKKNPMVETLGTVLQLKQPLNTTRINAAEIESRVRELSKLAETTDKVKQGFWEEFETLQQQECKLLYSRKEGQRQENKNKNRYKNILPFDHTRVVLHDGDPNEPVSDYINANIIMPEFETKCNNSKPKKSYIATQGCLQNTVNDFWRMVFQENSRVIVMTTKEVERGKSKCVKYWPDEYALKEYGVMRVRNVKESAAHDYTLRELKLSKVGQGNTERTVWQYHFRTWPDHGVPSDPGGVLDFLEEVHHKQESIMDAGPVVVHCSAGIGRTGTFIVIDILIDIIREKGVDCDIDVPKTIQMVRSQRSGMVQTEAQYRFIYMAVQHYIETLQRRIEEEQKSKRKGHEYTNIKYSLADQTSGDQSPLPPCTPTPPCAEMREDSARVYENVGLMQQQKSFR
# Experiment: Degradation activity on SHP2 protein in MIA Paca-2 cells (Western blot, DC50)
# Assay type: cell-based
# Parameters: endogenous in cells; host or cells: MIA Paca-2 cells
# Details: read-out: Degradation activity for differenct cell lines MIA Paca-2 (DC50)
# Method in brief: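 Cells were treated 24 h at 37 °C with compound (0.1–100 nM final, 0.1% DMSO). SHP2 was measured by Western blot with GAPDH as loading control, densitometry normalized to DMSO (100%). DC50, the concentration giving 50% degradation, came from a dose-response fit.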
row,SMILES,DC50 [nM]
1,C[C@@H]1OCC2(CCN(c3cnc(Sc4cccc(NC(=O)c5ccc(N6CCC(N7CC=C(c8cnc(C(=O)NCc9ccc%10c(c9)CN(C9CCC(=O)NC9=O)C%10=O)c(F)c8)CC7)CC6)c(F)c5)c4)cn3)CC2)[C@@H]1N (stereo partly shown) [Compound 464],< 100
2,C[C@@H]1OCC2(CCN(c3cnc(Sc4cccc(NC(=O)c5ccc(N6CCC(N7CC=C(c8ncc(C(=O)NCc9ccc%10c(c9)CN(C9CCC(=O)NC9=O)C%10=O)cc8F)CC7)CC6)c(F)c5)c4)cn3)CC2)[C@@H]1N (stereo partly shown) [Compound 466],< 100
3,Cc1cc(N2CCC(N3CC=C(c4ccc(C(=O)NCc5ccc6c(c5)CN(C5CCC(=O)NC5=O)C6=O)nc4F)CC3)CC2)ccc1C(=O)Nc1cccc(Sc2cnc(N3CCC(C)(N)CC3)cn2)c1 (stereo not shown) [Compound 468],< 100
4,Cc1cc(C(=O)Nc2cccc(Sc3cnc(N4CCC(C)(N)CC4)cn3)c2)ccc1N1CCC(N2CC=C(c3ccc(C(=O)NCc4ccc5c(c4)CN(C4CCC(=O)NC4=O)C5=O)nc3F)CC2)CC1 (stereo not shown) [Compound 469],100 to 1000
5,Cc1cc(C(=O)NCc2ccc3c(c2)CN(C2CCC(=O)NC2=O)C3=O)ncc1C1=CCN(C2CCN(c3ccc(C(=O)Nc4cccc(Sc5cnc(N6CCC(C)(N)CC6)cn5)c4)cc3F)CC2)CC1 (stereo not shown) [Compound 470],100 to 1000
6,CC1(N)CCN(c2cnc(Sc3cccc(NC(=O)c4cc(F)c(N5CCC(N6CC=C(c7ccc(C(=O)NCc8ccc9c(c8)CN(C8CCC(=O)NC8=O)C9=O)nc7)CC6)CC5)c(F)c4)c3)cn2)CC1 (stereo not shown) [Compound 471],100 to 1000
7,C[C@@H]1OCC2(CCN(c3cnc(Sc4cccc(NC(=O)c5ccc(N6CCC(N7CC=C(c8ccc(C(=O)NCc9ccc%10c(c9)CN(C9CCC(=O)NC9=O)C%10=O)c(F)n8)CC7)CC6)c(F)c5)c4)cn3)CC2)[C@@H]1N (stereo partly shown) [Compound 472],100 to 1000
8,C[C@@H]1OCC2(CCN(c3cnc(Sc4cccc(NC(=O)C5CC6(C5)CC(N5CC=C(c7ccc(C(=O)NCc8ccc9c(c8)CN(C8CCC(=O)NC8=O)C9=O)nc7)CC5)C6)c4)cn3)CC2)[C@@H]1N (stereo partly shown) [Compound 473],< 100
9,C[C@@H]1OCC2(CCN(c3cnc(Sc4cccc(NC(=O)C5CCC(N6CC=C(c7ccc(C(=O)NCc8ccc9c(c8)CN(C8CCC(=O)NC8=O)C9=O)nc7)CC6)CC5)c4)cn3)CC2)[C@@H]1N (stereo partly shown) [Compound 474],< 100
10,C[C@@H]1OCC2(CCN(c3cnc(Sc4cccc(NC(=O)C5CC(N6CCN(c7ccc(C(=O)NCc8ccc9c(c8)CN(C8CCC(=O)NC8=O)C9=O)nn7)CC6)C5)c4)cn3)CC2)[C@@H]1N (stereo partly shown) [Compound 475],> 1000
11,C[C@@H]1OCC2(CCN(c3cnc(Sc4cccc(NC(=O)C5CCC(N6CCN(c7ccc(C(=O)NCc8ccc9c(c8)CN(C8CCC(=O)NC8=O)C9=O)nn7)CC6)CC5)c4)cn3)CC2)[C@@H]1N (stereo partly shown) [Compound 476],> 1000
12,C[C@@H]1OCC2(CCN(c3cnc(Sc4cccc(NC(=O)C5CC(N6CC=C(c7ccc(C(=O)NCc8ccc9c(c8)CN(C8CCC(=O)NC8=O)C9=O)nc7)CC6)C5)c4)cn3)CC2)[C@@H]1N (stereo partly shown) [Compound 477],< 100
13,C[C@@H]1OCC2(CCN(c3cnc(Sc4cccc(NC(=O)c5ccc(N6CCC(N7CC=C(c8ccc(C(=O)NCc9ccc%10c(c9)CN(C9CCC(=O)NC9=O)C%10=O)c(Cl)c8)CC7)CC6)c(F)c5)c4)cn3)CC2)[C@@H]1N (stereo partly shown) [Compound 479],100 to 1000
14,Cc1cc(C(=O)NCc2ccc3c(c2)CN(C2CCC(=O)NC2=O)C3=O)ncc1C1=CCN(C2CCN(c3ccc(C(=O)Nc4cccc(Sc5cnc(N6CCC(C)(N)CC6)cn5)c4)cc3)CC2)CC1 (stereo not shown) [Compound 480],< 100
15,CC1(N)CCN(c2cnc(Sc3cccc(NC(=O)c4ccc(N5CCC(N6CC=C(c7ccc(C(=O)NCc8ccc9c(c8)CN(C8CCC(=O)NC8=O)C9=O)nc7F)CC6)CC5)cc4)c3)cn2)CC1 (stereo not shown) [Compound 481],< 100
16,"C[C@@H]1OCC2(CCN(c3cnc(Sc4cccc(NC(=O)c5ccc(N6CCC(N7CC=C(c8ccc(C(=O)NCc9ccc%10c(c9)CN(C9CCC(=O)NC9=O)C%10=O)nc8F)CC7)CC6)c(F)c5)c4)cn3)CC2)[C@@H]1N (stereo partly drawn) [Compound 483, 1′-(1-(4-((3-((5-((3S,4S)-4-amino-3-methyl-2-oxa-8-azaspiro[4.5]decan-8-yl)pyrazin-2-yl)thio)phenyl)aminoformyl)-2-fluorophenyl)piperidin-4-yl)-N-((2-(2,6-dioxopiperidin-3-yl)-1-oxoisoindol-5-yl)methyl)-2-fluoro-1′,2′,3′,6′-tetrahydro-[3,4′-bipyridine]-6-formamide hydrochloride]",< 100
17,CC1(N)CCN(c2cnc(Sc3cccc(NC(=O)c4ccc(N5CCC(N6CCN(c7cnc(C(=O)NCc8ccc9c(c8)CN(C8CCC(=O)NC8=O)C9=O)cc7Cl)CC6)CC5)nc4)c3)cn2)CC1 (stereo not shown) [Compound 484],< 100
18,Cc1cc(C(=O)Nc2cccc(Sc3cnc(N4CCC(C)(N)CC4)cn3)c2)cc(C)c1N1CCC(N2CC=C(c3ccc(C(=O)NCc4ccc5c(c4)CN(C4CCC(=O)NC4=O)C5=O)nc3)CC2)CC1 (stereo not shown) [Compound 486],< 100
19,Cc1cc(C2=CCN(C3CCN(c4ccc(C(=O)Nc5cccc(Sc6cnc(N7CCC8(CC7)CO[C@@H](C)[C@H]8N)cn6)c5)cc4F)CC3)CC2)ncc1C(=O)NCc1ccc2c(c1)CN(C1CCC(=O)NC1=O)C2=O (stereo partly shown) [Compound 488],< 100
20,C[C@@H]1OCC2(CCN(c3cnc(Sc4cccc(NC(=O)C5CCC(N6CC7(CCN(c8ccc(C(=O)NCc9ccc%10c(c9)CN(C9CCC(=O)NC9=O)C%10=O)cn8)C7)C6)CC5)c4)cn3)CC2)[C@@H]1N (stereo partly shown) [Compound 489],> 1000
21,C[C@@H]1OCC2(CCN(c3cnc(Sc4cccc(NC(=O)c5ccc(CN6CC7(CCN(c8ccc(C(=O)NCc9ccc%10c(c9)CN(C9CCC(=O)NC9=O)C%10=O)cn8)C7)C6)cc5)c4)cn3)CC2)[C@@H]1N (stereo partly shown) [Compound 490],100 to 1000
22,CC1(N)CCN(c2cnc(Sc3cccc(NC(=O)c4ccc(N5CCC(N6CCN(c7nnc(C(=O)NCc8ccc9c(c8)CN(C8CCC(=O)NC8=O)C9=O)cc7Cl)CC6)CC5)cc4)c3)cn2)CC1 (stereo not shown) [Compound 491],> 1000
23,CC1(N)CCN(c2cnc(Sc3cccc(NC(=O)c4ccc(N5CCC(N6CCN(c7nnc(C(=O)NCc8ccc9c(c8)CN(C8CCC(=O)NC8=O)C9=O)cc7Cl)CC6)CC5)nc4)c3)cn2)CC1 (stereo not shown) [Compound 492],< 100
24,CC1(N)CCN(c2cnc(Sc3cccc(NC(=O)c4ccc(N5CCC(N6CCN(c7nnc(C(=O)NCc8ccc9c(c8)CN(C8CCC(=O)NC8=O)C9=O)cc7Cl)CC6)CC5)c(F)c4)c3)cn2)CC1 (stereo not shown) [Compound 493],< 100
25,CC1(N)CCN(c2cnc(Sc3cccc(NC(=O)c4ccc(N5CCC(N6CCN(c7nnc(C(=O)NCc8ccc9c(c8)CN(C8CCC(=O)NC8=O)C9=O)cc7Cl)CC6)CC5)cc4F)c3)cn2)CC1 (stereo not shown) [Compound 494],< 100
26,Cc1cc(C(=O)Nc2cccc(Sc3cnc(N4CCC(C)(N)CC4)cn3)c2)ccc1N1CCC(N2CCN(c3cnc(C(=O)NCc4ccc5c(c4)CN(C4CCC(=O)NC4=O)C5=O)cc3Cl)CC2)CC1 (stereo not shown) [Compound 495],< 100
27,CC1(N)CCN(c2cnc(Sc3cccc(NC(=O)c4ccc(N5CCC(N6CCN(c7cnc(C(=O)NCc8ccc9c(c8)CN(C8CCC(=O)NC8=O)C9=O)cc7Cl)CC6)CC5)c(F)c4)c3)cn2)CC1 (stereo not shown) [Compound 496],< 100
28,CC1(N)CCN(c2cnc(Sc3cccc(NC(=O)c4ccc(N5CCC(N6CCN(c7cnc(C(=O)NCc8ccc9c(c8)CN(C8CCC(=O)NC8=O)C9=O)cc7Cl)CC6)CC5)cc4F)c3)cn2)CC1 (stereo not shown) [Compound 497],< 100
